{
  "source": "patent US8784911B2",
  "about": "“Compositions for treatment and prevention of diabetic complications using Osteomeles schwerinae” (Korea Institute of Oriental Medicine, priority 2009, dated 2014)",
  "key": {"[1]": {"tested_on": "type II diabetes animal model, Spontaneous Diabetic Torii (SDT) rat", "experiment": "Type II diabetes animal model, SDT rat", "format": "in vivo", "source_text": "To investigate the preventive and therapeutic effect of Osteomeles schwerinae on diabetic complications in type II diabetes animal model, the extract was orally administered to Spontaneous Diabetic Torii (SDT) rats for 16 weeks, followed by analysis of the effect. Spontaneous Diabetic Torii (SDT) rats, the type II diabetes animal model, were used as test animals. Particularly, male SDT rats at 10 weeks (CLEA Japan Inc., Tokyo, Japan) were adapted for 1 week, and then raised for 15 weeks until high blood glucose was induced up to the level of 300 mg/dl. Feeds and water were provided freely. 15 weeks later, the rats were divided into 5 groups, 8 rats per each group. As test drugs, Osteomeles schwerinae extract (Os-100, OS-250) and metformin (MET, control drug) were orally administered once a day. The experimental groups were as follows: the normal group (NOR), the diabetes group (DM), the diabetes group treated with 350 mg/kg of metformin (MET), the diabetes group treated with 100 mg/kg of Osteomeles schwerinae extract (OS-100), and the diabetes group treated with 250 mg/kg of Osteomeles schwerinae extract (OS-250). Each group was orally administered with the test drug once a day for 16 weeks. Urine was taken for 24 hours before autopsy. The organs extracted from the autopsy were stored at −80° C.\nThe test animals were anesthetized by peritoneally injecting pentobarbital sodium (25 mg/kg body weight). Heart was extracted by opening abdominal cavity and thoracic cavity. 50 mg/ml of fluorescein-dextran (2×10^6 molecular weight) dissolved in 1 ml/ml sterilized PBS was injected in the left ventricle. 10 minutes later, eye balls were extracted. Retina was separated from eyecup of the left eye ball. The isolated retina was placed on the slide, followed by mounting with aqueous mounting medium. The slide was completely dried and observed under fluorescent microscope. Fluorescent material was injected in retinal blood vessel, followed by observation. […] To investigate blood-retinal barrier damage, outflow of the fluorescent material was observed. […] However, the fluorescent material was leaked out of blood vessels, indicating blood-retinal barrier damage, in multiple animals of the diabetes group (arrow), and non-perfusion area (arrow) caused by the blood vessel being narrow was also observed in some of those animals in the diabetes group.\nLens was separated and lens opacity was examined to investigate the preventive effect of the extract on lens opacity. Eye balls were extracted during autopsy, which were placed in PBS (phosphate buffered saline, pH 7.4). Lens was carefully separated from the eyeball by posterior approach. Then, iris and zonule were eliminated. The lens was photographed under optical microscope equipped with CCD camera (BX51, Olympus, Japan). Lens opacity was measured with the photographed lens images by using Scion image analyzer (Scion Corporation, USA). The results of investigation of lens opacity with the lens isolated from the eye ball extracted during autopsy are shown in FIG. 39 and in FIG. 40. […] Incidence rate of cataract and lens opacity were quantitatively analyzed.\nLens opacity is caused by the degeneration of lens fiber composing lens. Thus, to investigate the effect of Osteomeles schwerinae extract on lens fiber degeneration, the effect of Osteomeles schwerinae extract on lens fiber degeneration in SDT type II diabetes rat was analyzed. To observe the degeneration of lens fiber induced by cataract, lens was fixed in 10% neutralized formalin (Microme, USA) for 24 hours, followed by the conventional tissue treatment. After paraffin embedding, the embedded block was cut into 2 μm thick sections, followed by hydration. The sections were stained with rhodamine-labeled wheat-germ agglutinin (WGA, Vector Laboratory, USA), and observed under fluorescent microscope (BX51, Olympus, Japan). To investigate the preventive effect on lens fiber degeneration, lens was stained and observed. […]"}, "[2]": {"tested_on": "type II diabetes animal model, Spontaneous Diabetic Torii (SDT) rat", "experiment": "Type II diabetes animal model, SDT rat", "format": "in vivo", "conditions": "oral once a day 16 weeks; extract 100 and 350 mg/kg as printed; metformin 350 mg/kg; vs diabetes group"}, "[3]": {"experiment": "Free radical scavenging activity by DPPH method", "format": "biochemical", "conditions": "30 minutes, room temperature", "experimental": "Anti-oxidative effect of Osteomeles […] extract, fractions thereof obtained from each of hexane layer, ethyl acetate layer, butanol layer and water layer of the extract was investigated in vitro. Free radical scavenging activity of each sample was measured by DPPH method (Brand-Williams W, et al., Technology, 1995, 28, 25-30). Samples were dissolved in ethanol, and diluted at different concentrations. Each of the diluted sample was distributed in 96 well plate (20 μl/well). […] DPPH solution dissolved in ethanol was added to each well by 180 μl to make the final volume of the reaction solution 200 μl, followed by reaction at room temperature for 30 minutes. Then, OD517 was measured with ELISA reader (Bio-TEK, Synergy HT, USA) to investigate absorbance changes by reduction of DPPH. Free radical scavenging activity was presented as RC50, which is the amount of sample (μg/ml) needed for the reduction of 50% DPPH. For the positive control, butylated hydroxytoluene (BHT) was used. Anti-oxidative effect of Osteomeles […] extract was measured in vitro by the same manner as described above and the results are shown in Table 7."}},
  "data": [
    {"smiles": "CN(C)C(=N)N=C(N)N", "note": "[metformin]", "values": [
      {"measurement": "blood-retinal barrier damage, outflow of the fluorescent material", "setting": "[1]; 16 weeks", "value": "observed just barely"},
      {"measurement": "pericyte loss, acellular capillary formation and closed vessels", "setting": "[1]; 16 weeks", "value": "significantly inhibited"},
      {"measurement": "GFAP positive reaction, Muller cell activation", "setting": "[1]; 16 weeks, vs diabetes group", "value": "rather decreased"},
      {"measurement": "aldose reductase (AR) activity in lens", "setting": "[1]; 16 weeks, extract 250 mg/ml as printed, metformin, vs diabetes group", "value": "AR activity was significantly reduced"},
      {"measurement": "lens fiber degeneration, swelling and vesicle formation", "setting": "[1]; 16 weeks, extract high concentration, metformin 350 mg/kg", "value": "improving effect was hardly observed"},
      {"measurement": "retinal angiogenesis, fluorescein-dextran", "setting": "[1]; 16 weeks, extract low and high concentration, metformin 350 mg/kg", "value": "Angiogenesis was also observed"},
      {"measurement": "podocyte loss, synaptopodin staining", "setting": "[1]; 16 weeks, extract low and high concentration, metformin 350 mg/kg, vs diabetes group", "value": "no significant difference"},
      {"measurement": "glomerular hypertrophy and mesangial matrix enlargement, PAS staining", "setting": "[1]; oral once a day 16 weeks, extract 100 and 250 mg/kg, metformin 350 mg/kg", "value": "morphological changes were reduced, which was not significant"},
      {"measurement": "level of AGEs in urine", "setting": "[2]", "value": "not significantly changed"}
    ]},
    {"smiles": "Cc1cc(C(C)(C)C)c(O)c(C(C)(C)C)c1", "note": "[BHT, butylated hydroxytoluene]", "values": [
      {"measurement": "RC50 (μg/ml), amount of sample needed for the reduction of 50% DPPH", "setting": "[3]", "value": "26.75 ± 10.75", "unit": "µg/mL"}
    ]}
  ]
}
